Reference: US5527782A, “5-halo-2,3'-O-cyclocytidines” (ACIC (Canada) Inc., priority 1990, dated 1996)
Where a name gives a salt, the structure may show the parent alone.

How the values were obtained:
[1] = test system: human alveolar tumour cell line A549; assay: [methyl-^3 H]thymidine uptake / cytotoxicity in human alveolar tumour cell line A549; assay type: cell-based; conditions: for IC50: Homo sapiens, 96 h, A549, four days incubation, then [methyl-^3 H]thymidine four hours, read-out: IC50 (drug concentrations producing 50% cytotoxicity); for cytotoxic effect on A549 cells compared to 2,3'-O-cyclocytidine hydrochloride: at relatively low concentrations
Excerpt: In this Example, there is described an in vitro comparison between 2,3'-O-cyclocytidine hydrochloride, 5-bromo-2,3'-O-cyclocytidine hydrochloride, and 5-iodo-2,3'-O-cyclocytidine hydrochloride. The specific in vitro test involved assessing the toxicity of the compounds in a particular cell line by conducting [methyl-^3 H]thymidine uptake experiments.
The particular cell line used in the Example was human alveolar tumour cell line A549 (hereinafter referred to as A549) obtained from The American Type Culture Collection (ATCC) as CCL 185 (lung carcinoma, human).
Cultures were inoculated at 1×10^5 cells/60 mm dish, incubated for four days in the presence of various concentrations (see FIGURE) of 2,3'-O-cyclocytidine hydrochloride (.largecircle.), 5-bromo-2,3'-O-cyclocytidine hydrochloride and 5-iodo-2,3'-O-cyclocytidine hydrochloride. Thereafter, the cells were incubated with a medium supplemented with [methyl-^3 H]thymidine (82 Cl/mmol; 5 μCl/ml) for four hours and lysed, and the amount of radioactivity incorporated into genomic DNA was measured. The IC50 values (drug concentrations producing 50% cytotoxicity) for each compound illustrated in the FIGURE are reported in Table 10. As will be apparent from […]

A375 melanoma cells = assay: In vivo antitumor activity, A375 melanoma engrafted s.c. in SCID mice; conditions: for Growth Delay: calculated from tumor volume curve; for Tumor Weight (% Inhibition): tumor weight at day 20
Method: (§1) In vivo studies were conducted comparing the effectiveness of 5-bromo-2,3'-O-cyclocytidine hydrochloride (5-Br-cycloC) with one or more of 2,3'-O-cyclocytidine hydrochloride (cycloC), 1 -β-D-arabinofuranosylcytosine (Ara-C), Adfiamycin (ADR) and Dacarbazine (DTIC).
(§2) More specifically, the antitumor activity of these compounds were evaluated in two human tumor cell lines engrafted in severe combined immunodeficient (SCID) mice. The particular cell lines used in this Example were A549 (described above in Example 5) and melanoma A375 cells obtained from The American Type Culture Collection (ATCC) (hereinafter referred to as A375).

A549 = assay: In vivo antitumor activity, A549 engrafted s.c. in SCID mice; conditions: for Growth Delay: calculated from tumor volume curve; for Tumor Weight (% Inhibition): tumor weight at day 20
Method: as §1, §2

[2] = MTD in non-tumor bearing SCID mice; conditions: mouse, in vivo, ip, i.p. daily×7
[3] = Experiment 1, 1000 mg/kg i.p. daily × 7
[4] = Experiment 1, 200 mg/kg i.p. daily × 7
[5] = Experiment 2, 250 mg/kg i.p. daily × 7
[6] = Experiment 2, 300 mg/kg i.p. × 1
[7] = Experiment 3, 250 mg/kg i.p. daily × 7
[8] = Experiment 3, 250 mg/kg i.p. every other day × 7
[9] = Experiment 4, 250 mg/kg i.p. every other day × 7
[10] = Experiment 1, 250 mg/kg i.p. daily × 7
[11] = Experiment 1, 250 mg/kg i.p. every other day × 7
[12] = Experiment 1, 60 mg/kg i.p. daily × 7
[13] = Experiment 2, 60 mg/kg i.p. daily × 7
[14] = Experiment 2, 60 mg/kg i.p. daily ×
[15] = Experiment 3, 120 mg/kg i.p. every other day × 7
[16] = Experiment 4, 120 mg/kg i.p. every other day × 7

With `N=c1ccn2c(n1)O[C@@H]1[C@@H](O)[C@H]2O[C@@H]1CO` [2,3'-O-Cyclocytidine hydrochloride, 2,3'-O-cyclocytidine hydrochloride, reference compound] the IC50 [1] was 50 µM, the “Growth Delay” value (A375 melanoma cells; [3]) was 2 days and the “Tumor Weight (% Inhibition)” value (A375 melanoma cells; [3]) was “+6%”. For the same molecule, the “Survival Rate (%)” value (A375 melanoma cells; in vivo, ip, 1000 mg/kg) was 100% and the “Weight Loss (% Decrease)” value (A375 melanoma cells; in vivo, ip, 1000 mg/kg) was 0%.
For `N=c1nc2n(cc1I)[C@@H]1O[C@H](CO)[C@H](O2)[C@H]1O` [5-Iodo-2,3'-O-cyclocytidine hydrochloride], the IC50 [1] was 10 µM and the “cytotoxic effect on A549 cells compared to 2,3'-O-cyclocytidine hydrochloride” value [1] was “significantly superior cytotoxic effect”.
For `N=c1nc2n(cc1Br)[C@@H]1O[C@H](CO)[C@H](O2)[C@H]1O` [5-bromo-2,3'-O-cyclocytidine hydrochloride], the IC50 [1] was 40 µM, the “cytotoxic effect on A549 cells compared to 2,3'-O-cyclocytidine hydrochloride” value [1] was “significantly superior cytotoxic effect” and the “Growth Delay” value (A375 melanoma cells; [4]) was 10 days. The “Tumor Weight (% Inhibition)” value (A375 melanoma cells; [4]) was 26%, the “Growth Delay” value (A375 melanoma cells; [5]) was 10 days and the “Tumor Weight (% Inhibition)” value (A375 melanoma cells; [5]) was 43%. The “Growth Delay” value (A375 melanoma cells; [6]) was 11 days, the “Tumor Weight (% Inhibition)” value (A375 melanoma cells; [6]) was 45% and the “Growth Delay” value (A375 melanoma cells; [7]) was 9 days. For the same molecule, the “Tumor Weight (% Inhibition)” value (A375 melanoma cells; [7]) was 38%, the “Growth Delay” value (A375 melanoma cells; [8]) was 12 days and the “Tumor Weight (% Inhibition)” value (A375 melanoma cells; [8]) was 43%. For the same molecule, the “Growth Delay” value (A375 melanoma cells; [9]) was 11 days, the “Tumor Weight (% Inhibition)” value (A375 melanoma cells; [9]) was 48% and the “weight loss during therapy” value (A375 melanoma cells; in vivo) was “no weight loss (or in two instances an actual weight gain)”. The “Survival Rate (%)” value (A375 melanoma cells; in vivo, ip, 200 mg/kg) was 100%, the “Weight Loss (% Decrease)” value (A375 melanoma cells; in vivo, ip, 200 mg/kg) was 0% and the “Survival Rate (%)” value (A375 melanoma cells; in vivo, ip, 300 mg/kg) was 33.3%. The “Weight Loss (% Decrease)” value (A375 melanoma cells; in vivo, ip, 300 mg/kg) was 0%, the “effectiveness in effecting tumor growth delay” value (A375 melanoma cells; treatment of A375, Table 11) was “as effective in effecting tumor growth delay as 1-β-D-arabinofuranosylcytosine and dacarbazine, and much more effective than 2,3'-O-cyclocytidine hydrochloride” and the “decrease of tumor growth” value (A549; 250 mg/kg daily×7, over a 20 day period) was “significantly decreased tumor growth”. The “Growth Delay” value (A549; [10]) was 10 days, the “Tumor Weight (% Inhibition)” value (A549; [10]) was 43% and the “Growth Delay” value (A549; [11]) was 6 days. The “Tumor Weight (% Inhibition)” value (A549; [11]) was 12%, the “survival rate” value (A549; in vivo) was 100% and the “weight loss” value (A549; in vivo) was “no weight loss (or an actual weight in one stance)”. For the same molecule, the “Survival Rate (%)” value (A549; in vivo, ip, 250 mg/kg) was 100% and the MTD [2] was 250 mg/kg.
For `COc1cccc2c1C(=O)c1c(O)c3c(c(O)c1C2=O)C[C@@](O)(C(=O)CO)C[C@@H]3O[C@H]1C[C@H](N)[C@H](O)[C@H](C)O1` [ADR, Adfiamycin], the “survival rate” value (A549; A549, Table 12) was at most 33.3%, the “Survival Rate (%)” value (A549; Experiment 1, 7 mg/kg i.p. × 1) was 16.7% and the “Growth Delay” value (A549; Experiment 1, 7 mg/kg i.p. × 1) was 5 days. The “Tumor Weight (% Inhibition)” value (A549; Experiment 1, 7 mg/kg i.p. × 1) was 6%, the “Survival Rate (%)” value (A549; Experiment 2, 5 mg/kg i.p. × 1) was 16.7% and the “Growth Delay” value (A549; Experiment 2, 5 mg/kg i.p. × 1) was 6 days. For the same molecule, the “Tumor Weight (% Inhibition)” value (A549; Experiment 2, 5 mg/kg i.p. × 1) was 24%, the “weight loss” value (A549; in vivo) was “weight loss” and the “Weight Loss (% Decrease)” value (A549; in vivo, ip, 5 mg/kg) was 32%. The “Weight Loss (% Decrease)” value (A549; in vivo, ip, 7 mg/kg) was 16%.
In the case of `Nc1ccn([C@@H]2O[C@H](CO)[C@@H](O)[C@@H]2O)c(=O)n1` [Ara-C, 1 -β-D-arabinofuranosylcytosine], the “Survival Rate (%)” value (A375 melanoma cells; [12]) is reported as 100%, the “Growth Delay” value (A375 melanoma cells; [12]) is reported as 10 days and the “Tumor Weight (% Inhibition)” value (A375 melanoma cells; [12]) is reported as 45%. The “Survival Rate (%)” value (A375 melanoma cells; [13]) was 100%, the “Growth Delay” value (A375 melanoma cells; [13]) was 11 days and the “Tumor Weight (% Inhibition)” value (A375 melanoma cells; [13]) was 39%. For the same molecule, the “survival rate” value (A549; A549, Table 12) was at most 33.3%, the “Survival Rate (%)” value (A549; [12]) was 33.3% and the “Growth Delay” value (A549; [12]) was 7 days. For the same molecule, the “Tumor Weight (% Inhibition)” value (A549; [12]) was 38%, the “Survival Rate (%)” value (A549; [14]) was 33.3% and the “Growth Delay” value (A549; [14]) was 11 days. For the same molecule, the “Tumor Weight (% Inhibition)” value (A549; [14]) was 47% and the “weight loss” value (A549; in vivo) was “weight loss”.
With `CN(C)/N=N/c1[nH]cnc1C(N)=O` [DTIC, Dacarbazine, reference compound] the “Growth Delay” value (A375 melanoma cells; [15]) was 12 days, the “Tumor Weight (% Inhibition)” value (A375 melanoma cells; [15]) was 53% and the “Growth Delay” value (A375 melanoma cells; [16]) was 13 days. For the same molecule, the “Tumor Weight (% Inhibition)” value (A375 melanoma cells; [16]) was 59%.
